Data reported in patent publication US9896435B2, “N-pyrrolidinyl,N′-pyrazolyl-urea, thiourea, guanidine and cyanoguanidine compounds as TrkA kinase inhibitors” (Array BioPharma Inc., priority 2012, dated 2018).

Assays:
Experiment in all cases: KinaseProfiler off-target kinase profiling
Format in all cases: biochemical
Details in all cases: 10 μM, ATP near Km
AKT1 = AKT1 (Homo sapiens (Human), UniProt P31749)
Outline: (§1)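 10 μM cpd; ATP ≈ Km per kinase; n=2; data as POC, mean of duplicates.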

ALK = ALK (Homo sapiens (Human), UniProt Q9UM73)
Outline: as §1

ALK4 = ALK4 (Homo sapiens (Human), UniProt P36896)
Outline: as §1

Abl2 = Abl2 (Homo sapiens (Human), UniProt P42684)
Outline: as §1

Axl = Axl (Homo sapiens (Human), UniProt P30530)
Outline: as §1

CAMK1 = CAMK1 (Homo sapiens (Human), UniProt Q14012)
Outline: as §1

CAMK2g = CAMK2g (Homo sapiens (Human), UniProt Q13555)
Outline: as §1

CDK5/p25 = CDK5/p25 (Homo sapiens (Human), UniProt Q00535)
Outline: as §1

CDK7/cyclinH/MAT1 = CDK7/cyclinH/MAT1 (Homo sapiens (Human), UniProt P50613)
Outline: as §1

CK2alpha2 = CK2alpha2 (Homo sapiens (Human), UniProt P19784)
Outline: as §1

CSK = CSK (Homo sapiens (Human), UniProt P41240)
Outline: as §1

DAPK2 = DAPK2 (Homo sapiens (Human), UniProt Q9UIK4)
Outline: as §1

EphA3 = EphA3 (Homo sapiens (Human), UniProt P29320)
Outline: as §1

EphB1 = EphB1 (Homo sapiens (Human), UniProt P54762)
Outline: as §1

FAK = FAK (Homo sapiens (Human), UniProt Q05397)
Outline: as §1

FGFR2 = FGFR2 (Homo sapiens (Human), UniProt P21802)
Outline: as §1

Fgr = Fgr (Homo sapiens (Human), UniProt P09769)
Outline: as §1

Flt4 = Flt4 (Homo sapiens (Human), UniProt P35916)
Outline: as §1

IR Activated = IR Activated (Homo sapiens (Human), UniProt P06213)
Outline: as §1

LKB1 = LKB1 (Homo sapiens (Human), UniProt Q15831)
Outline: as §1

MAP3K5 = MAP3K5 (Homo sapiens (Human), UniProt Q99683)
Outline: as §1

MARK2 = MARK2 (Homo sapiens (Human), UniProt Q7KZI7)
Outline: as §1

MKNK2 = MKNK2 (Homo sapiens (Human), UniProt Q9HBH9)
Outline: as §1

MST3 = MST3 (Homo sapiens (Human), UniProt Q9Y6E0)
Outline: as §1

NEK2 = NEK2 (Homo sapiens (Human), UniProt P51955)
Outline: as §1

PAK5 = PAK5 (Homo sapiens (Human), UniProt Q9P286)
Outline: as §1

PDK1 = PDK1 (Homo sapiens (Human), UniProt O15530)
Outline: as §1

PKAC-alpha = PKAC-alpha (Homo sapiens (Human), UniProt P17612)
Outline: as §1

PKCbetaII = PKCbetaII (Homo sapiens (Human), UniProt P05771)
Outline: as §1

PKCdelta = PKCdelta (Homo sapiens (Human), UniProt Q05655)
Outline: as §1

PKD1 = PKD1 (Homo sapiens (Human), UniProt Q15139)
Outline: as §1

PKD2 = PKD2 (Homo sapiens (Human), UniProt Q9BZL6)
Outline: as §1

Pim-2 = Pim-2 (Homo sapiens (Human), UniProt Q9P1W9)
Outline: as §1

Rse = Rse (Homo sapiens (Human), UniProt Q06418)
Outline: as §1

Rsk2 = Rsk2 (Homo sapiens (Human), UniProt P51812)
Outline: as §1

TBK1 = TBK1 (Homo sapiens (Human), UniProt Q9UHD2)
Outline: as §1

TNK2 = TNK2 (Homo sapiens (Human), UniProt Q07912)
Outline: as §1

p70S6K = p70S6K (Homo sapiens (Human), UniProt P23443)
Outline: as §1

ALK4, sequence (P36896 24-505): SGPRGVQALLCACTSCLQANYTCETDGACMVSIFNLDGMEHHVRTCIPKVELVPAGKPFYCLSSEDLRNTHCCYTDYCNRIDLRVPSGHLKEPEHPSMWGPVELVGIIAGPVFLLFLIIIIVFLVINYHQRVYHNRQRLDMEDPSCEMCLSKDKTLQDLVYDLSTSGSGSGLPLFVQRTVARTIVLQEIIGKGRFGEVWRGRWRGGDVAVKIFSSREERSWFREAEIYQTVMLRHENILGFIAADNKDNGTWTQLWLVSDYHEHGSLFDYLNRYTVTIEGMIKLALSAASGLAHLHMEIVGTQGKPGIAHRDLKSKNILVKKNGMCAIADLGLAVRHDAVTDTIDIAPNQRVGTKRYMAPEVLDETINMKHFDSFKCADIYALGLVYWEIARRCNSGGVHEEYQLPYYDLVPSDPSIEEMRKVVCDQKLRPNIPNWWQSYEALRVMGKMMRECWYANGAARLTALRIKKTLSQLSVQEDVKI
PKD2, sequence (Q9BZL6 whole entry): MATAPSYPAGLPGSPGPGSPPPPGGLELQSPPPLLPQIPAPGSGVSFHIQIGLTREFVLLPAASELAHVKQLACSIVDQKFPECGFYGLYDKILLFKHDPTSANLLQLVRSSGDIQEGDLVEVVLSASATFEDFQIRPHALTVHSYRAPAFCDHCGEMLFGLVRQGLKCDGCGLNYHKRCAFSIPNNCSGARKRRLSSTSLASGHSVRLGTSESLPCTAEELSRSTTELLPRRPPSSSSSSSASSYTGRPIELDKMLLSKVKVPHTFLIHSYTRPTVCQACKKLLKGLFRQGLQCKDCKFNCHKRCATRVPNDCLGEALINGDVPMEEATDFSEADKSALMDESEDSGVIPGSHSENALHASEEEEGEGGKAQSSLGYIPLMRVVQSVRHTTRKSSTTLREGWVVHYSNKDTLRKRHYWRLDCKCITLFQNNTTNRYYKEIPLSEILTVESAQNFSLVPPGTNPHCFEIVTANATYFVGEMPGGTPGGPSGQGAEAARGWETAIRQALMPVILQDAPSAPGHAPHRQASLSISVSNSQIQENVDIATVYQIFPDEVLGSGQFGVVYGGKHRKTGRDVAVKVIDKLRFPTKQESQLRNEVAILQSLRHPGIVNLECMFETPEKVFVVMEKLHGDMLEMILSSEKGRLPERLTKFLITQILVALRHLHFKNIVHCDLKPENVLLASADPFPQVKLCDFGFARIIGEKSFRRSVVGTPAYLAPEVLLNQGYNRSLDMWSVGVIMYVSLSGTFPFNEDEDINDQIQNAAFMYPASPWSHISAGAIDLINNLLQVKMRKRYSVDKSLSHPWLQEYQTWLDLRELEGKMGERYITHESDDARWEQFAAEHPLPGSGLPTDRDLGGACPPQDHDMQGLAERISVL
CAMK2g, sequence (Q13555 whole entry): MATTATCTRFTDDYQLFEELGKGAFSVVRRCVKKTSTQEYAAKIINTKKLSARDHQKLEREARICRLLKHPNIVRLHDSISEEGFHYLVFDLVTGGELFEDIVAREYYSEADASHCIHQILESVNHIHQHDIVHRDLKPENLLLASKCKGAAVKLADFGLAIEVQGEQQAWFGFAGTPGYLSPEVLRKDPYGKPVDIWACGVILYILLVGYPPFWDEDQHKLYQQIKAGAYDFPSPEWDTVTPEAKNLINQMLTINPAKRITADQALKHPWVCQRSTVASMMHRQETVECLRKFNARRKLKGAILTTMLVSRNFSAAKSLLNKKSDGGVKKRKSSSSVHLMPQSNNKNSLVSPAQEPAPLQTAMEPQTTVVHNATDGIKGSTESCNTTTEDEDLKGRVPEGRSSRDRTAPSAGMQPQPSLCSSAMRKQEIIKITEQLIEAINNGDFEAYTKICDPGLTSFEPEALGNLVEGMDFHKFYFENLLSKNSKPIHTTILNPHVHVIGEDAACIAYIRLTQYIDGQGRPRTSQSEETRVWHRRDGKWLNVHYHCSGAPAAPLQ
CDK5/p25, sequence (Q00535 whole entry): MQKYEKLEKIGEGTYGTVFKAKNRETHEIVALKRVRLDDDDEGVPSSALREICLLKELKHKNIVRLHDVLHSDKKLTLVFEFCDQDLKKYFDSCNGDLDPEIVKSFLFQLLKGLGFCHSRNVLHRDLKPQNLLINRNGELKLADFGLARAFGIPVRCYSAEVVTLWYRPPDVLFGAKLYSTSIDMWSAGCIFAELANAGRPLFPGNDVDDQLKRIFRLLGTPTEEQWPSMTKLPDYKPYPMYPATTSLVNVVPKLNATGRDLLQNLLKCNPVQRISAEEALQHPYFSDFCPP
CDK5/p25, sequence (Q15078 99-307 partner): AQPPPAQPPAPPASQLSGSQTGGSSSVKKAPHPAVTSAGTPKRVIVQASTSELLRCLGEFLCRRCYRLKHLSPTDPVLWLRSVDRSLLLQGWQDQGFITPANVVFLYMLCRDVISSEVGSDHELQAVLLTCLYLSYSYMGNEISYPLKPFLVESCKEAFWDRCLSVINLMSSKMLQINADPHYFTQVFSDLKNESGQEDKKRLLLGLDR
EphB1, sequence (P54762 18-984): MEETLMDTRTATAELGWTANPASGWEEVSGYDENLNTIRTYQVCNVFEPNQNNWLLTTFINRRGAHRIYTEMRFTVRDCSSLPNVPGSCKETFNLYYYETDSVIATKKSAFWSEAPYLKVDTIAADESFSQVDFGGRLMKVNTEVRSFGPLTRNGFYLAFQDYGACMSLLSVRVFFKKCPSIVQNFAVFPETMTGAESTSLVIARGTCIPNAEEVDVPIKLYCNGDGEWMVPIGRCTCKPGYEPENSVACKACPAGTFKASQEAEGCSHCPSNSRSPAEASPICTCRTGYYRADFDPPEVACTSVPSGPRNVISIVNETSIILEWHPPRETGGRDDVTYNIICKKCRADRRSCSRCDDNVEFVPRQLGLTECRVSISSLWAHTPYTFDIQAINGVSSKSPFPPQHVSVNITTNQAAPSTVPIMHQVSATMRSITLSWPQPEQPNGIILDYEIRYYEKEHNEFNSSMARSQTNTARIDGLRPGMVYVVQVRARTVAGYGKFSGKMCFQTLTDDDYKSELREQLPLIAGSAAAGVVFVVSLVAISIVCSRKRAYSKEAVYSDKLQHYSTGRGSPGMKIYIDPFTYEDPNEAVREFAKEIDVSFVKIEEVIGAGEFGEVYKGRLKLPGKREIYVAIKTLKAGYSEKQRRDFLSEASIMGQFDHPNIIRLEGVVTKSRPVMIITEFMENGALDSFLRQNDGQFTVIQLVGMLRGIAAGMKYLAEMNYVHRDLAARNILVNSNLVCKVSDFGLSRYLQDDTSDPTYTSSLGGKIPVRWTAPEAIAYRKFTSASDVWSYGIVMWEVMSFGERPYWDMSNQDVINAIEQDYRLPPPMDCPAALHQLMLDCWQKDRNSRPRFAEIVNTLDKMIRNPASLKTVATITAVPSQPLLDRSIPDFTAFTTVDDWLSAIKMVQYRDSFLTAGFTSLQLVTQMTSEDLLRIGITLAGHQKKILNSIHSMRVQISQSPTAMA
PDK1, sequence (O15530 whole entry): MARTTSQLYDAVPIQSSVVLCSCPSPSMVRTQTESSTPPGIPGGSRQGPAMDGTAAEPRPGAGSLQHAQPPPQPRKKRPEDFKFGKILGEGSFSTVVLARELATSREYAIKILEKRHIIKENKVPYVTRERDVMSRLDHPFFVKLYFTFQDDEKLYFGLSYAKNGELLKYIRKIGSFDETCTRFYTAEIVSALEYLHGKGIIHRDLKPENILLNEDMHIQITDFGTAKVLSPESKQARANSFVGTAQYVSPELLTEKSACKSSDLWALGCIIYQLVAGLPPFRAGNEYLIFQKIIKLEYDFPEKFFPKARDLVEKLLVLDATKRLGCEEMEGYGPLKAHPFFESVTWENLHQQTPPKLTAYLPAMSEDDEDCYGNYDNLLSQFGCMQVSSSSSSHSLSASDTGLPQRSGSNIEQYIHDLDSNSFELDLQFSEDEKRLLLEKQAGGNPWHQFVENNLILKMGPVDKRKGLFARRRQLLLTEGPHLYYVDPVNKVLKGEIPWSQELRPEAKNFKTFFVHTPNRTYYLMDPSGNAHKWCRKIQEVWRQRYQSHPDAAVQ
TBK1, sequence (Q9UHD2 whole entry): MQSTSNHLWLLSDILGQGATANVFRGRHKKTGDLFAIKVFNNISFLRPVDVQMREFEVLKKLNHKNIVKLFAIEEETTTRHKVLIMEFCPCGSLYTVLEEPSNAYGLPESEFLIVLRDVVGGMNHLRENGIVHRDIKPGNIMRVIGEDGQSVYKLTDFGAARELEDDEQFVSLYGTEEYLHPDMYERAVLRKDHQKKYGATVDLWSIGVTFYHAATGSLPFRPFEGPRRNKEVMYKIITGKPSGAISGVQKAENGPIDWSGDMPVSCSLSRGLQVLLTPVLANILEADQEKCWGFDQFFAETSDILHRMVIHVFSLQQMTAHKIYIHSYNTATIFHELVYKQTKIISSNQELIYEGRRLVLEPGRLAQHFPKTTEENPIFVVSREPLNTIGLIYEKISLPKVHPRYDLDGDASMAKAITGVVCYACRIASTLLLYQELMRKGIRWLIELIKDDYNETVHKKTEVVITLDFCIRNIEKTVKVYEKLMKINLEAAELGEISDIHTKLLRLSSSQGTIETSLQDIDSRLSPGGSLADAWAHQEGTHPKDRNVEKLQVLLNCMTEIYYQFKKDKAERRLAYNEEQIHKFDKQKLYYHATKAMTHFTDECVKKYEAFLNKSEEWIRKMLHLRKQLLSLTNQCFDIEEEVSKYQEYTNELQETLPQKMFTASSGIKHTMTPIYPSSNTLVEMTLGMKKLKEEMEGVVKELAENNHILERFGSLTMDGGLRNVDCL
IR Activated, sequence (P06213 1005-1310 limits assumed): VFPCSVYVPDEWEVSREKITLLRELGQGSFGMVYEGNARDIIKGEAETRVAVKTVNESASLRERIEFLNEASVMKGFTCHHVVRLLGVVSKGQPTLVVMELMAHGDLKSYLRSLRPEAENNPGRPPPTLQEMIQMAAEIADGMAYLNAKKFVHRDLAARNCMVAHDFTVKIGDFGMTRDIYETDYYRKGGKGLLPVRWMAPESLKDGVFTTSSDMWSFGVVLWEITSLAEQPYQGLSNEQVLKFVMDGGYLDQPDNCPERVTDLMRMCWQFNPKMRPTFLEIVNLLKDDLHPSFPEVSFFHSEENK

| SMILES | Avg POC (AKT1) [POC] | Avg POC (ALK) [POC] | Avg POC (ALK4) [POC] | Avg POC (Abl2) [POC] | Avg POC (Axl) [POC] | Avg POC (CAMK1) [POC] | Avg POC (CAMK2g) [POC] | Avg POC (CDK5/p25) [POC] | Avg POC (CDK7/cyclinH/MAT1) [POC] | Avg POC (CK2alpha2) [POC] | Avg POC (CSK) [POC] | Avg POC (DAPK2) [POC] | Avg POC (EphA3) [POC] | Avg POC (EphB1) [POC] | Avg POC (FAK) [POC] | Avg POC (FGFR2) [POC] | Avg POC (Fgr) [POC] | Avg POC (Flt4) [POC] | Avg POC (IR Activated) [POC] | Avg POC (LKB1) [POC] | other results |
| --- | --- | --- | --- | --- | --- | --- | --- | --- | --- | --- | --- | --- | --- | --- | --- | --- | --- | --- | --- | --- | --- |
| COCCN1C[C@@H](NC(=O)Nc2c(C)c(-c3ccnc(C)c3)nn2-c2ccccc2)[C@H](c2ccc(F)c(F)c2)C1 [Example 2, 1-((3S,4R)-4-(3,4-difluorophenyl)-1-(2-methoxyethyl)pyrrolidin-3-yl)-3-(4-methyl-3-(2-methylpyridin-4-yl)-1-phenyl-1H-pyrazol-5-yl)urea] | 109.5 | 111 | 112.5 | 101 | 117 | 107 | 89.5 | 104 | 88 | 119.5 | 113 | 109 | 101.5 | 93.5 | 111.5 | 91.5 | 108.5 | 95 | 106.5 | 89.5 | Avg POC (MAP3K5): 97.5 POC; Avg POC (MARK2): 90 POC; Avg POC (MKNK2): 101 POC; Avg POC (MST3): 101 POC; Avg POC (NEK2): 96 POC; Avg POC (PAK5): 103 POC; Avg POC (PDK1): 94.5 POC; Avg POC (PKAC-alpha): 94.5 POC; Avg POC (PKCbetaII): 101.5 POC; Avg POC (PKCdelta): 102.5 POC; Avg POC (PKD1): 96 POC; Avg POC (PKD2): 101.5 POC; Avg POC (Pim-2): 86.5 POC; Avg POC (Rse): 96 POC; Avg POC (Rsk2): 106 POC; Avg POC (TBK1): 116.5 POC; Avg POC (TNK2): 109.5 POC; Avg POC (p70S6K): 105.5 POC |
| COCCN1C[C@@H](NC(=O)Nc2c(C)c(-c3cnc(C)nc3)nn2-c2ccccc2)[C@H](c2cc(F)cc(F)c2)C1 [Example 14, 1-((3S,4R)-4-(3,5-difluorophenyl)-1-(2-methoxyethyl)pyrrolidin-3-yl)-3-(4-methyl-3-(2-methylpyrimidin-5-yl)-1-phenyl-1H-pyrazol-5-yl)urea] | 98.5 | 102.5 | 115 | 95.5 | 103 | 103.5 | 99 | 99 | 97.5 | 120 | 103 | 107 | 106.5 | 97.5 | 98.5 | 103 | 80.5 | 92.5 | 100.5 | 103.5 | Avg POC (MAP3K5): 104 POC; Avg POC (MARK2): 99.5 POC; Avg POC (MKNK2): 101 POC; Avg POC (MST3): 105.5 POC; Avg POC (NEK2): 97.5 POC; Avg POC (PAK5): 107 POC; Avg POC (PDK1): 101.5 POC; Avg POC (PKAC-alpha): 109 POC; Avg POC (PKCbetaII): 92 POC; Avg POC (PKCdelta): 99.5 POC; Avg POC (PKD1): 97 POC; Avg POC (PKD2): 108 POC; Avg POC (Pim-2): 103.5 POC; Avg POC (Rse): 96.5 POC; Avg POC (Rsk2): 99.5 POC; Avg POC (TBK1): 103 POC; Avg POC (TNK2): 97.5 POC; Avg POC (p70S6K): 98 POC |
